Data from patent US9351955B2, “Compounds and pharmaceutical compositions thereof for the treatment of cystic fibrosis” (Galapagos NV, priority 2013, dated 2016).
Values joined by “and” are separate entries in the source; they are usually repeats but may differ in a detail not shown here. Equal entries are not always repeated.

Legend:
CYP3A4 = molecular target: T1, CYP3A4 (Homo sapiens, UniProt P08684); assay: Time dependent inhibition (TDI) of CYP3A4 in human liver microsomes; format: in vitro ADME
T1 construct: tissue BD Gentest; host or cells: human liver microsomes
T1 sequence (P08684 whole entry): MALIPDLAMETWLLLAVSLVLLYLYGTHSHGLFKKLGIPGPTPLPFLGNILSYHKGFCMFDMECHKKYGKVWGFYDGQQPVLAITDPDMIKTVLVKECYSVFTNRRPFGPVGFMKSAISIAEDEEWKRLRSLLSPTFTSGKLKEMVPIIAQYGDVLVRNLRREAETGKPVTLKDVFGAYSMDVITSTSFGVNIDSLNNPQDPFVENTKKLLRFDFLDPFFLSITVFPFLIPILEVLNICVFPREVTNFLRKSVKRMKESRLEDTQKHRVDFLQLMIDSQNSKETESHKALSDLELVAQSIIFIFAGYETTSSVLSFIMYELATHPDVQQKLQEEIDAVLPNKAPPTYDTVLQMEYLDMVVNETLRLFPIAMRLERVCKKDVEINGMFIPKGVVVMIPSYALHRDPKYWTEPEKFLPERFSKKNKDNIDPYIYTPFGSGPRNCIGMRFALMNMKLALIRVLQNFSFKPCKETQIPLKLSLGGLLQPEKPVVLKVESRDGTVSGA
Experimental: 8.7.11. Time Dependent Inhibition (TDI) 8.7.11.1. Protocol
The mechanism-based inhibition assay for CYP3A4 is carried out to evaluate the presence of any TDI.
A 5 mM stock solution of test compound is prepared in methanol. This stock is serially diluted 1:3 in methanol and then added in duplicates to mixture containing 50 mM potassium phosphate buffer pH 7.4 and human liver microsomes (BD Gentest). Final reaction conditions are as follows: seven test compound concentrations (0.14-100 μM), prepared in duplicates and 2% methanol.
A summary of the specific conditions is shown below.
After finishing the pre-incubation, the reaction is finally started by adding the co-factor mix to the first replica and probe substrate to second replica (opposite from pre-incubation).
After incubation at 37° C., the reaction (aliquot of 50 μL) is terminated with 150 μL acetonitrile:methanol (2:1) solution with internal standard (warfarin). Samples are centrifuged and the supernatant fractions analyzed by LC-MS/MS.
The instrument responses (ratio of test compound and internal standard peak areas) are referenced to those for solvent controls (assumed as 100%) in order to determine the percentage reduction in probe metabolism. […]

CFTR G551D = CFTR G551D (Homo sapiens, UniProt P13569, G551D); assay: TECC assay, FRT cells stably transfected with G551D CFTR; format: cell-based; settings: high expression CFTR-G551D cells, several values in a cell = repeat determinations
Chain of CFTR G551D (P13569 whole entry G551D): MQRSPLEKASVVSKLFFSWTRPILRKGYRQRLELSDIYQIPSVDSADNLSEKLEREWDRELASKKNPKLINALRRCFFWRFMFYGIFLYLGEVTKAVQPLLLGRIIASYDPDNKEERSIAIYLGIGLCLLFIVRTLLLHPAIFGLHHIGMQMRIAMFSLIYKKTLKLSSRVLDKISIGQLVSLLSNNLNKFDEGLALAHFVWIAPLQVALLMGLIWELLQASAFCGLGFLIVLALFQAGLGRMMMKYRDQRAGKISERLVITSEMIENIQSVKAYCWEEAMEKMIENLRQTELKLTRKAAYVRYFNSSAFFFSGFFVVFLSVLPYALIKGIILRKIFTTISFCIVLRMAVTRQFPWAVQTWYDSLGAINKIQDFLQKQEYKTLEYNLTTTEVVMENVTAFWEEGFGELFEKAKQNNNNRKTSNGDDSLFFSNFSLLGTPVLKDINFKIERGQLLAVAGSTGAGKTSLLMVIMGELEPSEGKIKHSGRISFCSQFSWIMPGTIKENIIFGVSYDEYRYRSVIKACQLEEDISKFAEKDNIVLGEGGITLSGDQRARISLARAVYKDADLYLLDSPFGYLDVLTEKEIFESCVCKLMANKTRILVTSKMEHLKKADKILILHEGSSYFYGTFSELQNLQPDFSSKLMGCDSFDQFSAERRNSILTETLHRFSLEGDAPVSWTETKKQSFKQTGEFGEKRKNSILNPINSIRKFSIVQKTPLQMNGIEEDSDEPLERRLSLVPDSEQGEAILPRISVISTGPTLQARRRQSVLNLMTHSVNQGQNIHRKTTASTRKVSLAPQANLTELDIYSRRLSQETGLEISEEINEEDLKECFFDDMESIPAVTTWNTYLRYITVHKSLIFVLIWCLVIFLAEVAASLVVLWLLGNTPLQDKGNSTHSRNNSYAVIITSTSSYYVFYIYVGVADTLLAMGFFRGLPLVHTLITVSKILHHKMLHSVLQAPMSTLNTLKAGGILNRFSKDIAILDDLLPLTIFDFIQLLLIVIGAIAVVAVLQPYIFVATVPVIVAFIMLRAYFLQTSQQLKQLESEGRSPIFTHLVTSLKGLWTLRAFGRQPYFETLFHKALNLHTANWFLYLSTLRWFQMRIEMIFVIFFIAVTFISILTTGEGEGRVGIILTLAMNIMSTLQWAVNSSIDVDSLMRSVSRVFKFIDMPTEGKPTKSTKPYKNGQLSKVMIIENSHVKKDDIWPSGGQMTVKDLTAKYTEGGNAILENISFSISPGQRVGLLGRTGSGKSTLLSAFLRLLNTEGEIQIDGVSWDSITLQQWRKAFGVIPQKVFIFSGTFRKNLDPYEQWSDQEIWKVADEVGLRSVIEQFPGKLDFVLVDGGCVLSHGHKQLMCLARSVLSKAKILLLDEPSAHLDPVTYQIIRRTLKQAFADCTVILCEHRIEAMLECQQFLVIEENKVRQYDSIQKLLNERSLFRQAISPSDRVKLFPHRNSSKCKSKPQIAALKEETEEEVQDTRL
Experimental: 7.2.3. FRT-CFTR G551D Protocol
For G551D recordings, Fish Rat Thyroid (FRT) cells stably transfected with G551D CFTR (a low CFTR-G551D expressing cell line and a high expressing CFTR-G551D cell line from Rosalind Franklin University of medicine and science, Chicago, Ill.) are plated on Transwell supports (Costar 6.5 mm Diameter, […]). The cells are grown for 8-10 d under liquid-liquid interface conditions prior to electrophysiological readings. For electrophysiological recording, the FRT-G551D cells are mounted in the TECC heating plate for electrophysiological measurement and kept at 37° C. The epithelia are bathed in hepes buffered culturing medium without FBS on both the basolateral and apical sides. Apical amiloride is used to inhibit the endogenous ENaC currents while forkolin is applied on both apical and basolateral side to stimulate CFTR. After forskolin triggering, compounds are added on both sides to test their potential for increasing CFTR gating. Measurements are done during a 10 minute timeframe with recordings every 2 min. The increase in ISC is used as a measure for the increased CFTR activity, EC50 values can be generated by measuring impact of different concentrations of compound on ISC on the cells, for this purpose each transwell is treated with a different compound concentration. Inh-172, an inhibitor specific for CFTR, is used to test the specificity of the tested compounds.
When subjected to this protocol, the following EC50 are measured.

CFTR-R117H = molecular target: T2, CFTR-R117H (Homo sapiens, UniProt P13569, R117H); assay: YFP-halide influx assay for the CFTR-R117H; format: cell-based; settings: CFTR-R117H mutant; read-out: EC50 measured by YFP-halide influx assay for the CFTR-R117H
T2 construct: expressed in transfected cells
T2 sequence (P13569 whole entry R117H): as the sequence (P13569 whole entry G551D) above, with R117H, D551G counted along it
How it was run: (§1)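 HEK293 cells reverse-transfected with mutant CFTR and halide-sensitive YFP H148Q/I152L/F47L reporter, then expressed 24 h at 37 °C, 5% CO2. Fluorescence quenching recorded for 7 s after I^− injection; response expressed as 1−F/F0, with EC50 derived from response versus compound concentration.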

CFTR-G178R = molecular target: T3, CFTR-G178R (Homo sapiens, UniProt P13569, G178R); assay: YFP-halide influx assay for the CFTR-G178R; format: cell-based; settings: read-out: EC50 measured by YFP-halide influx assay for the CFTR-G178R
T3 construct: expressed in transfected cells
T3 sequence (P13569 whole entry G178R): as the sequence (P13569 whole entry G551D) above, with G178R, D551G counted along it
How it was run: as §1

CFTR-S549N = molecular target: T4, CFTR-S549N (Homo sapiens, UniProt P13569, S549N); assay: YFP-halide influx assay for the CFTR-S549N; format: cell-based; settings: CFTR-S549N mutant; read-out: EC50 measured by YFP-halide influx assay for the CFTR-S549N
T4 construct: expressed in transfected cells
T4 sequence (P13569 whole entry S549N): as the sequence (P13569 whole entry G551D) above, with S549N, D551G counted along it
How it was run: as §1

CFTR-G1349D = molecular target: T5, CFTR-G1349D (Homo sapiens, UniProt P13569, G1349D); assay: YFP-halide influx assay for the CFTR-G1349D; format: cell-based; settings: CFTR-G1349D mutant; read-out: EC50 measured by YFP-halide influx assay for the CFTR-G1349D
T5 construct: expressed in transfected cells
T5 sequence (P13569 whole entry G1349D): as the sequence (P13569 whole entry G551D) above, with D551G, G1349D counted along it
How it was run: as §1

Row | IC50 (CYP3A4; both without and with preincubation, Midazolam or testosterone as probe substrate, human liver microsomes) [nM] | EC50 (CFTR G551D) | EC50 (CFTR-R117H) [nM] | EC50 (CFTR-G178R) [nM] | EC50 (CFTR-S549N) [nM] | EC50 (CFTR-G1349D) [nM] | SMILES | time-dependent inhibition of CYP3A4 (CYP3A4; IC50 without vs with preincubation)
1 | > 100000 | 66.2 nM and 90.2 nM and 85 nM and 61.5 nM and 57.8 nM and 87.4 nM | 166 | 56.9 | 211 | 63.3 | CC1(C)Cc2c(sc(NC(=O)c3ccn[nH]3)c2C(N)=O)C(C)(C)O1 [Compound 2, N-(3-carbamoyl-5,5,7,7-tetramethyl-5,7-dihydro-4H-thieno[2,3-c]pyran-2-yl)-1H-pyrazole-5-carboxamide] | no evidence for time-dependent inhibition of CYP3A4
2 | – | 361 nM and 527 nM and 695 nM and 400 nM and 511 nM | 433 | 699 | 902 | 578 | CC1(C)Cc2c(sc(NC(=O)C3(CO)CC3)c2C(N)=O)C(C)(C)O1 [Compound 9, 2-(1-(hydroxymethyl)cyclopropanecarboxamido)-5,5,7,7-tetramethyl-5,7-dihydro-4H-thieno[2,3-c]pyran-3-carboxamide] | –
